Literature values, collected in patent EP4796171A2 (Zealand Pharma A/S, priority 2017, dated 2018).

Settings: background statement; cited from earlier work

For `CC[C@H](C)[C@H](NC(=O)[C@H](Cc1ccccc1)NC(=O)[C@H](CC(=O)O)NC(=O)[C@H](CCCNC(=N)N)NC(=O)[C@H](C)NC(=O)[C@H](C)NC(=O)[C@H](CC(C)C)NC(=O)[C@H](CC(N)=O)NC(=O)[C@H](CC(=O)O)NC(=O)[C@H](CC(C)C)NC(=O)[C@@H](NC(=O)[C@@H](NC(=O)[C@H](CC(N)=O)NC(=O)[C@H](CCSC)NC(=O)[C@H](CCC(=O)O)NC(=O)[C@H](CC(=O)O)NC(=O)[C@H](CO)NC(=O)[C@H](Cc1ccccc1)NC(=O)[C@H](CO)NC(=O)CNC(=O)[C@H](CC(=O)O)NC(=O)CNC(=O)[C@@H](N)Cc1c[nH]cn1)[C@@H](C)O)[C@@H](C)CC)C(=O)N[C@@H](CC(N)=O)C(=O)N[C@@H](Cc1c[nH]c2ccccc12)C(=O)N[C@@H](CC(C)C)C(=O)N[C@H](C(=O)N[C@@H](CCC(N)=O)C(=O)N[C@H](C(=O)N[C@@H](CCCCN)C(=O)N[C@H](C(=O)N[C@H](C(=O)N[C@@H](CC(=O)O)C(=O)O)[C@@H](C)O)[C@@H](C)CC)[C@@H](C)O)[C@@H](C)CC` [Teduglutide], the Half-life is given as “about two”.
